Reference: patent publication EP4596574A1, “GLP-1/GCG/GIP TRIPLE-RECEPTOR AGONIST AND USE THEREOF” (Sunshine Lake Pharma Co., Ltd., priority 2022, dated 2024)
pEC50: −log10 of the molar value. Starred links: 1 amine or outer side, 2 acyl side, 3 side chain; linkers in the order of their positions; H or OH if unused. Non-standard residues stand in square brackets, D forms with d. Residues, ends and D or L forms follow the SMILES beside them. Groups on a side chain read outwards from the residue. *: point of attachment. C20 diacid = O=C(O)CCCCCCCCCCCCCCCCCCC(=O)*; αMePhe(2-F) = C[C@](N)(Cc1ccccc1F)C(=O)O; γGlu = O=C(O)[C@H](CCC(=O)[*:2])N[*:1]; AEEA = NCCOCCOCC(=O)O; Aib = CC(C)(N)C(=O)O

How the values were obtained:
Format in all cases: cell-based
[1] = biological target: T1, GLP-1R (Homo sapiens, UniProt P43220); assay: In vitro cell activity, cAMP production in HEK293 cells expressing GLP-1R; conditions: HEK293-GLP-1R cells, cAMP; read-out: GLP-1R (EC50)
T1 construct: expressed in transfected cells; host or cells: HEK293 (HEK293-GLP-1R)
T1 sequence (P43220 24-463, species assumed): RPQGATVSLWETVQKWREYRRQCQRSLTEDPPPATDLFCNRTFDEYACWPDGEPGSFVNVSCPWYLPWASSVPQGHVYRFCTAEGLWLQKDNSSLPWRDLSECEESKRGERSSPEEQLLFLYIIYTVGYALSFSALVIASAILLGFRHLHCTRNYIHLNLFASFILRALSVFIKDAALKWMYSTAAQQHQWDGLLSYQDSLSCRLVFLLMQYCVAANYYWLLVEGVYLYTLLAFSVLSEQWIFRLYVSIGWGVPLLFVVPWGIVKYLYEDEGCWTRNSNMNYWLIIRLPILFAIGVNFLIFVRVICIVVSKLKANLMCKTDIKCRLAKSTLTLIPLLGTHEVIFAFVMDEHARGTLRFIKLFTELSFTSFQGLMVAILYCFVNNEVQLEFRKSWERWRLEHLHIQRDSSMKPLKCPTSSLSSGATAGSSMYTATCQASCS
Summary of the method: (§1)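 HEK293 transfectants, 4×10^5 cells/mL, 384-well. Detection: cAMP-d2 + anti-cAMP cryptate 1:1, RT 1 h dark or 4 °C o/n. Read 665/620 nm; 4-parameter nonlinear fit → EC50.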

[2] = biological target: T2, GCGR (Homo sapiens, UniProt P47871); assay: In vitro cell activity, cAMP production in HEK293 cells expressing GCGR; conditions: HEK293-GCGR cells, cAMP; read-out: GCGR (EC50)
T2 construct: expressed in transfected cells; host or cells: HEK293 (HEK293-GCGR)
T2 sequence (P47871 26-477, species assumed): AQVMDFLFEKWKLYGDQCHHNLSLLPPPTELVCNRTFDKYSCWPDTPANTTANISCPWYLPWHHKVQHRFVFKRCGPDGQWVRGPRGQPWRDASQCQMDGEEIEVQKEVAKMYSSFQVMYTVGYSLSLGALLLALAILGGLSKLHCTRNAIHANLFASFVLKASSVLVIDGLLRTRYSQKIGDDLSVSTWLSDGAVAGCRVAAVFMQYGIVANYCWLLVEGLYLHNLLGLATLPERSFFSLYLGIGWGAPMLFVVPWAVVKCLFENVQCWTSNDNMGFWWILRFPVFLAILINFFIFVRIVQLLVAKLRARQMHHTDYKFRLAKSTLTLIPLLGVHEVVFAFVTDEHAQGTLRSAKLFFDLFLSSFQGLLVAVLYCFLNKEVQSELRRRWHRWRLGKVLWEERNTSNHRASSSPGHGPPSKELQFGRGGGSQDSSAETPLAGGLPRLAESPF
Summary of the method: as §1

[3] = biological target: T3, GIPR (Homo sapiens, UniProt P48546); assay: In vitro cell activity, cAMP production in HEK293 cells expressing GIPR; conditions: HEK293-GIPR cells, cAMP; read-out: GIPR (EC50)
T3 construct: expressed in transfected cells; host or cells: HEK293 (HEK293-GIPR)
T3 sequence (P48546 22-466): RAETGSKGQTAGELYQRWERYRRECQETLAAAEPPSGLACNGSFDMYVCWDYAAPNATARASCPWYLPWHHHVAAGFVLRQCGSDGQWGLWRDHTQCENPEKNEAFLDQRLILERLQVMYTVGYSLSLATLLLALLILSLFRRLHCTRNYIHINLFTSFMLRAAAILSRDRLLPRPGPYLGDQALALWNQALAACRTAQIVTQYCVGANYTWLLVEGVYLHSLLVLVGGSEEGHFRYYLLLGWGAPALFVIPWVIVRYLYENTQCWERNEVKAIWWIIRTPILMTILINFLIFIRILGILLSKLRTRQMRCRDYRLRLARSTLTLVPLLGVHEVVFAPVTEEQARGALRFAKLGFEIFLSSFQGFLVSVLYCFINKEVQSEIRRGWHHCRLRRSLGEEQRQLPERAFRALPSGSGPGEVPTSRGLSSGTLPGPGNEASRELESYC
Summary of the method: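 HEK293 cells expressing human GIPR, thawed and diluted to 4×10^5 cells/mL, are stimulated with test compound. cAMP is measured by HTRF competition between cAMP-d2 and anti-cAMP cryptate. EC50 comes from a four-parameter nonlinear fit of signal ratio against concentration.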

| SMILES | pEC50 [1] | pEC50 [2] | pEC50 [3] |
| --- | --- | --- | --- |
| CC[C@H](C)[C@H](NC(=O)[C@H](CC(C)C)NC(=O)[C@H](Cc1c[nH]c2ccccc12)NC(=O)[C@H](CCC(=O)O)NC(=O)[C@@H](NC(=O)[C@H](Cc1ccccc1)NC(=O)[C@H](CCC(=O)O)NC(=O)[C@H](CCCCNC(=O)COCCOCCNC(=O)COCCOCCNC(=O)CC[C@H](NC(=O)CCCCCCCCCCCCCCCCCCC(=O)O)C(=O)O)NC(=O)[C@H](C)NC(=O)[C@H](C)NC(=O)[C@H](CCCNC(=N)N)NC(=O)[C@H](CCC(=O)O)NC(=O)[C@H](CC(=O)O)NC(=O)[C@H](CC(C)C)NC(=O)[C@H](CC(C)C)NC(=O)[C@@H](NC(=O)[C@H](CO)NC(=O)[C@H](Cc1ccc(O)cc1)NC(=O)[C@H](CC(=O)O)NC(=O)[C@H](CO)NC(=O)[C@@H](NC(=O)[C@](C)(Cc1ccccc1F)NC(=O)[C@@H](NC(=O)CNC(=O)[C@H](CCC(N)=O)NC(=O)C(C)(C)NC(=O)[C@@H](N)Cc1ccc(O)cc1)[C@@H](C)O)[C@@H](C)O)[C@@H](C)CC)[C@@H](C)CC)C(=O)N[C@@H](C)C(=O)NCC(=O)NCC(=O)N1CCC[C@H]1C(=O)N[C@@H](CO)C(=O)N[C@@H](CO)C(=O)NCC(=O)N[C@@H](C)C(=O)N1CCC[C@H]1C(=O)N1CCC[C@H]1C(=O)N1CCC[C@H]1C(=O)N[C@@H](CO)C(=O)O [HEC-PT71] (H-Y[Aib]QGT[αMePhe(2-F)]TSDYSILLDERAAK([AEEA-AEEA-γGlu-C20 diacid])EFIEWLIAGGPSSGAPPPS-OH) | 9.47 | 8.27 | 9.33 |
| CC[C@H](C)[C@H](NC(=O)[C@H](Cc1ccccc1)NC(=O)[C@H](CCC(=O)O)NC(=O)[C@H](CCCNC(=N)N)NC(=O)[C@H](C)NC(=O)[C@H](CCCNC(=N)N)NC(=O)[C@H](CCCCNC(=O)COCCOCCNC(=O)CC[C@H](NC(=O)CCCCCCCCCCCCCCCCCCC(=O)O)C(=O)O)NC(=O)[C@H](CCC(=O)O)NC(=O)[C@H](CC(=O)O)NC(=O)[C@H](CC(C)C)NC(=O)[C@H](CC(C)C)NC(=O)[C@@H](NC(=O)[C@H](CO)NC(=O)[C@H](Cc1ccc(O)cc1)NC(=O)[C@H](CC(=O)O)NC(=O)[C@H](CO)NC(=O)[C@@H](NC(=O)[C@](C)(Cc1ccccc1F)NC(=O)[C@@H](NC(=O)CNC(=O)[C@H](Cc1c[nH]cn1)NC(=O)C(C)(C)NC(=O)[C@@H](N)Cc1ccc(O)cc1)[C@@H](C)O)[C@@H](C)O)[C@@H](C)CC)C(=O)N[C@@H](CCC(=O)O)C(=O)N[C@@H](Cc1c[nH]c2ccccc12)C(=O)N[C@@H](CC(C)C)C(=O)N[C@@H](CC(C)C)C(=O)N[C@@H](CCC(=O)O)C(=O)NCC(=O)NCC(=O)N1CCC[C@H]1C(=O)N[C@@H](CO)C(=O)N[C@@H](CO)C(=O)NCC(=O)N[C@@H](C)C(=O)N1CCC[C@H]1C(=O)N1CCC[C@H]1C(=O)N1CCC[C@H]1C(=O)N[C@@H](CO)C(=O)O [HEC-PT89] | 9.76 | 10.38 | 9.67 |
